Test results from article PMC11536310, “Evaluation of STK17B as a cancer immunotherapy target utilizing highly potent and selective small molecule inhibitors” (Frontiers in Immunology, 2024).

System: phospho-myosin light chain 2 (pMLC2) S19
Assay: pMLC2 flow cytometry assay in mouse whole blood in vitro
Assay type: cell-based
Settings: ROCK1/2 inhibitor added to top concentration (30 µM) of BLU4565

CC1=C(C(=O)Nc2cc3cn[nH]c3cc2F)C(c2ccc(C(F)(F)F)cc2)CC(=O)N1 (stereo not shown) [GSK429286A]
further reduction of pMLC2 median fluorescence intensity signal compared with BLU4565 alone: Minimal further reduction
